Values belong to the compound of their own block, whether it stands above or below them.
Molecular target: PCSK9 (Homo sapiens, UniProt Q8NBP7)
Assay: PCSK9-LDLR in vitro Binding Assay (ELISA)
Settings: for inhibition at 5 µM: Concentration 5 μM
Procedure: The PCSK9-LDLR in vitro Binding Assay is a quantitative solid phase binding assay between PCSK9 and recombinant LDLR. Plates were pre-coated with a recombinant LDLR-AB domain, which binds PCSK9. Test compound at different concentration was added to the PCSK9 and added to LDLR immobilized on the wells. The amount of bound PCSK9 is measured by binding it with biotinylated anti-His-tag monoclonal antibody, followed by binding with horseradish peroxidase conjugated streptavidin substrate. The color was quantified by ELISA reader at […] which reflects the relative amount of PCSK9 that binds to LDLR in presence and absence of the inhibitor. EC50 values were calculated by nonlinear regression analysis using graph pad prism software. Each concentration point represents values in duplicates.

Sequence of PCSK9 (Q8NBP7 153-692): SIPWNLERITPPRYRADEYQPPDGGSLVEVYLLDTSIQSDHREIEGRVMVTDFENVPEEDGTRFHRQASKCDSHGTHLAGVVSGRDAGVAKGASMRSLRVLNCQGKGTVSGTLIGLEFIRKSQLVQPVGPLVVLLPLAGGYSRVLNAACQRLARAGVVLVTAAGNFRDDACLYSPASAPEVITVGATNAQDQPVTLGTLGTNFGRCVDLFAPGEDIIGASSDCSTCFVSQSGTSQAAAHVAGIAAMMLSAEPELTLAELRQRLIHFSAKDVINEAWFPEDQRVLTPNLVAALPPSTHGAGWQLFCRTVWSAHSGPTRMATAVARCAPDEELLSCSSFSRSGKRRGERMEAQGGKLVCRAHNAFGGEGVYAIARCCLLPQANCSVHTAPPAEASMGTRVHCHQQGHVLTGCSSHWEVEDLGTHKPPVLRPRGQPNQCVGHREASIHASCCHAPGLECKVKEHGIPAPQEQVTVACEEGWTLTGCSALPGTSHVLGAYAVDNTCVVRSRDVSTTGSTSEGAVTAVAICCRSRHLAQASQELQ
Sequence of PCSK9 (Q8NBP7 31-152 partner limits assumed): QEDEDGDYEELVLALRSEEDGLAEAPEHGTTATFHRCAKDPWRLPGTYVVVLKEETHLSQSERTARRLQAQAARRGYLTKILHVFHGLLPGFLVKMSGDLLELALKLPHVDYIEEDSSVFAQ

SMILES: Cc1oc(-c2ccccc2)nc1CC1COC(C)(C(=O)NOCc2ccccc2)OC1 (stereo not shown) [Example 1, N-(benzyloxy)-2-methyl-5-((5-methyl-2-phenyloxazol-4-yl)methyl)-1,3-dioxane-2-carboxamide]
inhibition at 5 µM: 25%
inhibition at 10 µM (Concentration 10 μM): 30%
inhibition at 100 µM (Concentration 100 μM): 32%

SMILES: Cc1oc(-c2ccccc2)nc1CC1COC(C)(C(=O)N2CCCCC2)OC1 (stereo not shown) [Example 15, (2-methyl-5-c-((5-methyl-2-phenyloxazol-4-yl)methyl)-1,3-dioxan-2-yl)(piperidin-1-yl)methanone]
% Inhibition PCSK9 (Concentration 10 μM): 11%
% Inhibition PCSK9 (Concentration 100 μM): 4%

SMILES: Cc1oc(-c2ccccc2)nc1CC1COC(C)(C(=O)N2CCSCC2)OC1 (stereo not shown) [Example 16, (2-methyl-5-c-((5-methyl-2-phenyloxazol-4-yl)methyl)-1,3-dioxan-2-yl)(thiomorpholino)methanone]
% Inhibition PCSK9 (Concentration 100 μM): 12%

SMILES: Cc1oc(-c2ccccc2)nc1CC1COC(C)(C(=O)N2CCS(=O)(=O)CC2)OC1 (stereo not shown) [Example 17, (1,1-dioxidothiomorpholino)(2-methyl-5-c-((5-methyl-2-phenyloxazol-4-yl)methyl)-1,3-dioxan-2-yl)methanone]
% Inhibition PCSK9 (Concentration 100 μM): 15%

SMILES: Cc1oc(-c2ccccc2)nc1CC1COC(C)(C(=O)NCC(=O)N2CCCCC2)OC1 (stereo not shown) [Example 22, 2-methyl-5-c-((5-methyl-2-phenyloxazol-4-yl)methyl)-N-(2-oxo-2-(piperidin-1-yl)ethyl)-1,3-dioxane-2-carboxamide]
% Inhibition PCSK9 (Concentration 10 μM): 25%
% Inhibition PCSK9 (Concentration 100 μM): 17%

SMILES: Cc1oc(-c2ccccc2)nc1CC1COC(C)(C(=O)NCC(=O)N2CCSCC2)OC1 (stereo not shown) [Example 23, 2-methyl-5-c-((5-methyl-2-phenyloxazol-4-yl)methyl)-N-(2-oxo-2-thiomorpholinoethyl)-1,3-dioxane-2-carboxamide]
% Inhibition PCSK9 (Concentration 10 μM): 21%
% Inhibition PCSK9 (Concentration 100 μM): 22%

SMILES: Cc1oc(-c2ccccc2)nc1CC1COC(C)(C(=O)NCCC(=O)N2CCS(=O)(=O)CC2)OC1 (stereo not shown) [Example 29, N-(3-(1,1-dioxidothiomorpholino)-3-oxopropyl)-2-methyl-5-c-((5-methyl-2-phenyloxazol-4-yl)methyl)-1,3-dioxane-2-carboxamide]
% Inhibition PCSK9 (Concentration 10 μM): 8%
% Inhibition PCSK9 (Concentration 100 μM): 12%

More lines, now with the values ahead:

% Inhibition PCSK9 (Concentration 10 μM): 15%
% Inhibition PCSK9 (Concentration 100 μM): 12%
SMILES: Cc1oc(-c2ccccc2)nc1CC1COC(C)(C(=O)NCC2CCOCC2)OC1 (stereo not shown) [Example 9, 2-methyl-5-c-((5-methyl-2-phenyloxazol-4-yl)methyl)-N—((tetrahydro-2H-pyran-4-yl)methyl)-1,3-dioxane-2-carboxamide]

inhibition at 5 µM: 20%
inhibition at 10 µM (Concentration 10 μM): 30%
inhibition at 100 µM (Concentration 100 μM): 44%
SMILES: Cc1oc(-c2ccccc2)nc1CC1COC(C)(C(=O)N2CCOCC2)OC1 (stereo not shown) [Example 11, (2-methyl-5-((5-methyl-2-phenyloxazol-4-yl)methyl)-1,3-dioxan-2-yl)(morpholino)methanone]

inhibition at 1 µM (Concentration 1 μM): 40%
inhibition at 100 µM (Concentration 100 μM): 39%
SMILES: Cc1oc(-c2ccccc2)nc1CC1COC(C)(C(=O)NCC(=O)N2CCOCC2)OC1 (stereo not shown) [Example 18, 2-methyl-5-((5-methyl-2-phenyloxazol-4-yl)methyl)-N-(2-morpholino-2-oxoethyl)-1,3-dioxane-2-carboxamide]

% Inhibition PCSK9 (Concentration 10 μM): 15%
% Inhibition PCSK9 (Concentration 100 μM): 16%
SMILES: Cc1oc(-c2ccccc2)nc1CC1COC(C)(C(=O)NCC(=O)NCC2CCOCC2)OC1 (stereo not shown) [Example 25, 2-methyl-5-c-((5-methyl-2-phenyloxazol-4-yl)methyl)-N-(2-oxo-2-(((tetrahydro-2H-pyran-4-yl)methyl)amino)methyl)-1,3-dioxane-2-carboxamide]
